Test results reported in patent publication US20240148673A1 (priority 2016, published 2024).
Read-outs that look alike come from different tables or passages of the source. Each block holds one compound with its values, some of them ahead of it.

Key:
[1] = PBS (pH 7.4), n=6; cited from earlier work
[2] = in vivo, po, 6 mg
Procedure: The study compared various dose routes: sublingual (SL), per oral tablet (PO), subcutaneous (SC) and intravenous (IV). […] An Oral Irritation assessment was performed (SL film group): Predose (0) and 24 hr postdose by Draize scoring.

SMILES: CC(C)NCC(O)COc1cccc2ccccc12 (centres unmarked) [PP]
C0 of saturated solution [1]: 588005 ± 5852 µg/mL

average flux (30 min, 16 mg/mL): 0 μg/cm2*min | average flux (45 min, 16 mg/mL): 0.2604 μg/cm2*min | average flux (60 min, 16 mg/mL): 0.3125 μg/cm2*min | average flux (120 min, 16 mg/mL): 0.6727 μg/cm2*min | average flux (180 min, 16 mg/mL): 1.076 μg/cm2*min | average flux (240 min, 16 mg/mL): 1.029 μg/cm2*min | average flux (300 min, 16 mg/mL): 1.25 μg/cm2*min | Average Steady State flux (360 min, 4 mg/mL): 0.167 ug/cm2*min | Average Steady State flux (360 min, 8 mg/mL): 0.466 ug/cm2*min | Average Steady State flux (360 min, 16 mg/mL): 1.317 ug/cm2*min | average flux (360 min, 16 mg/mL): 1.385 μg/cm2*min | Average Steady State flux (360 min, 100 mg/mL): 2.942 ug/cm2*min
SMILES: CNC[C@H](O)c1ccc(O)c(O)c1 [Epinephrine Bitartrate]

DIPI Tmax [2]: 0 h
SMILES: CNC[C@H](O)c1ccc(OC(=O)C(C)(C)C)c(OC(=O)C(C)(C)C)c1 (racemic) [dipivefrin]
